# Experimental data taken from patent US8017755B2, “RNA-based transcriptional regulators” (President and Fellows of Harvard College, priority 2003, dated 2011).
# Key:
# TMR-binding aptamer = conditions: cited from earlier work
# yeast = conditions: cited from earlier work
# S. cerevisiae cell wall = conditions: cited from earlier work
# S. cerevisiae = assay: Growth of yeast cultures in varying TMR concentrations; conditions: 10 μM TMR
# [1] = Gal4-VP16 fusions versus intact Gal4; cited from earlier work
# HIS3 gene = assay: Survival on media lacking histidine in strain L40-ura3, which lacks the LexA-MS2 fusion protein; type: cell-based, S. cerevisiae
# Excerpt: To test whether the evolved RNAs require the MS2 protein-mediated localization to the LexA promoter, we introduced the plasmids expressing two representative active clones (m26-11 and m26-15) into the yeast strain L40-ura3 which lacks the LexA-MS2 fusion protein but is otherwise identical to YBZ-1 (Bernstein, D. S., Buter, N., Stumpf, C., and Wickens, M. (2002). Analyzing mRNA-protein complexes using a yeast three-hybrid system. Methods 26, 123-141).
# Media consisted of yeast nitrogen base (Sigma), 4% dextrose, and synthetic drop out supplements lacking histidine or histidine and uracil (Clontech). Yeast were cultured either in liquid medium or on agar plates at 30° C. S. cerevisiae strains YBZ-1 (MATa, ura3-52, leu2-3, 112, his3-200, trp1-1, ade2, LYS2::(LexA op)-HIS3, ura3::(LexA op)-LacZ, LexA-MS2-MS2 coat (N55K)) and L40-ura3 (MATa, ura3-52, leu2-3112, his3Δ200, trp1Δ1, ade2, LYS2::(LexA op)-HIS3, ura3::(LexA op)-LacZ) were a gift from Professor Marvin Wickens (Bernstein, D. S., Buter, N., Stumpf, C., and Wickens, M. (2002). Analyzing mRNA-protein complexes using a yeast three-hybrid system. Methods 26, 123-141).
compound,measurement,setting,value
"CN(C)c1ccc2c(-c3ccc(CCl)cc3)c3ccc(=[N+](C)C)cc-3oc2c1 [TMR, tetramethylrosamine]",Kd,TMR-binding aptamer,40 nM
same,concentration non-toxic to yeast,yeast,up to 1 μM
same,crossing of the S. cerevisiae cell wall,S. cerevisiae cell wall,cross the S. cerevisiae cell wall
same,growth inhibition of yeast,S. cerevisiae,Slight growth inhibition
VP16,"transcriptional activation, fold more potent than Gal4",[1],100 fold
"m26-15: evolved N40-26 variant SEQ ID NO: 28 CGCGGACCAAUGGU-CCCCCAAGUGGAUGCCUAAGCCUCUU (DNA CGCGGACCAAUGGUCCCCCAAGUGGAUGCCUAAGCCUCUU; listed as RNA, chemistry not given here)",survival on media lacking histidine without LexA-MS2 fusion protein,HIS3 gene,unable to survive
